Publication PMC8963254, “Effects of Lysine N-ζ-Methylation in Ultrashort Tetrabasic Lipopeptides (UTBLPs) on the Potentiation of Rifampicin, Novobiocin, and Niclosamide in Gram-Negative Bacteria” (Antibiotics, 2022)
Converted amounts (≈) assume the structure as drawn. Where two headings read alike, the source gives them in different places. Non-standard residues stand in square brackets, D forms with d. Residues, ends and D or L forms follow the SMILES beside them. *: point of attachment. Lys(Me2) = CN(C)CCCC[C@H](N)C(=O)O; Octanoyl = CCCCCCCC(=O)*

How the values were obtained:
[1] = tested on: E. faecium ATCC 27270; assay type: cell-based, Enterococcus faecium
In short: (§1)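 Values derive from a two-agent checkerboard with an 18 h, 37 °C incubation. FICI cut-offs: ≤0.5 synergy, 0.5–4 additive, >4 antagonism.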

[2] = tested on: MSSE 81388; assay type: cell-based, Staphylococcus epidermidis; conditions: 18 h
In short: (§2)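 Turbidity at 590 nm defined growth, from which the MIC was taken. Cultures at a final density of 5 × 10^5 CFU/mL were exposed to a range of compound levels at 37 °C for 18 h in a CLSI-based microdilution format.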

[3] = tested on: MRSE 61589; assay type: cell-based, Staphylococcus epidermidis; conditions: 61589, 18 h
In short: as §2

[4] = tested on: E. faecalis ATCC 29212; assay type: cell-based, Enterococcus faecalis
In short: as §1

[5] = tested on: E. faecalis ATCC 29212; assay type: cell-based, Enterococcus faecalis; conditions: ATCC 29212, 18 h
In short: as §2

[6] = tested on: K. pneumoniae 113250; assay: microbe, parasite or virus in culture; assay type: cell-based, Klebsiella pneumoniae; conditions: 113250, 18 h
In short: as §2

[7] = tested on: K. pneumoniae 113250; assay type: cell-based, Klebsiella pneumoniae; conditions: for MICUTBLP: UTBLP alone
In short: as §1

[8] = tested on: P. aeruginosa PA259-96196; assay: microbe, parasite or virus in culture; assay type: cell-based, Pseudomonas aeruginosa; conditions: PA259-96196, 18 h
In short: as §2

[9] = tested on: P. aeruginosa PA262-101856; assay: microbe, parasite or virus in culture; assay type: cell-based, Pseudomonas aeruginosa; conditions: PA262-101856, 18 h
In short: as §2

[10] = tested on: E. faecium ATCC 27270; assay type: cell-based, Enterococcus faecium; conditions: ATCC 27270, 18 h
In short: as §2

[11] = tested on: E. cloacae 118564; assay type: cell-based, Enterobacter cloacae; conditions: for MICUTBLP: UTBLP alone
In short: as §1

[12] = tested on: S. aureus ATCC 29213; assay type: cell-based, Staphylococcus aureus; conditions: ATCC 29213, 18 h
In short: as §2

[13] = tested on: MRSA ATCC 33592; assay type: cell-based, Staphylococcus aureus; conditions: ATCC 33592, 18 h
In short: as §2

[14] = tested on: P. aeruginosa PAO1; assay type: cell-based, Pseudomonas aeruginosa; conditions: for MICUTBLP: UTBLP alone
In short: as §1

[15] = tested on: P. aeruginosa PA259-96196; assay type: cell-based, Pseudomonas aeruginosa; conditions: for MICUTBLP: UTBLP alone
In short: as §1

[16] = tested on: P. aeruginosa PA262-101856; assay type: cell-based, Pseudomonas aeruginosa; conditions: for MICUTBLP: UTBLP alone
In short: as §1

[17] = tested on: E. coli 94393; assay type: cell-based, Escherichia coli; conditions: for MICUTBLP: UTBLP alone
In short: as §1

[18] = tested on: E. coli 94474; assay type: cell-based, Escherichia coli; conditions: for MICUTBLP: UTBLP alone
In short: as §1

[19] = UTBLP alone, plate with chloramphenicol
[20] = UTBLP in combination with chloramphenicol
[21] = chloramphenicol in combination with the UTBLP
[22] = UTBLP in combination with novobiocin
[23] = UTBLP in combination with rifampicin
[24] = novobiocin in combination with the UTBLP
[25] = rifampicin in combination with the UTBLP

Structure (SMILES): CCCCCCCC(=O)NCCCC[C@H](NC(=O)CCCCCCC)C(=O)N[C@@H](CCCCN(C)C)C(=O)N[C@@H](CCCCN(C)C)C(=O)N[C@@H](CCCCN(C)C)C(=O)N[C@@H](CCCCN(C)C)C(N)=O [UTBLP 7] (Octanoyl-K(Octanoyl)[Lys(Me2)][Lys(Me2)][Lys(Me2)][Lys(Me2)]-NH2)
- Interpretation ([1]; UTBLP + chloramphenicol): Additive (0.5 < x ≤ 4 is additive)
- MICUTBLP [1, 19]: 128 µg/mL
- MICUTBLP [MICcombo] [1, 20]: 0.25 µg/mL
- MICchloramphenicol [MICcombo] [1, 21]: 4 µg/mL
- MIC [2]: 32 µg/mL (≈ 31.3 µM)
- MIC [3]: 32 µg/mL (≈ 31.3 µM)
- Interpretation ([4]; UTBLP + chloramphenicol): Additive (0.5 < x ≤ 4 is additive)
- MICUTBLP [4, 19]: 64 µg/mL
- MICUTBLP [MICcombo] [4, 20]: 8 µg/mL
- MICchloramphenicol [MICcombo] [4, 21]: 4 µg/mL
- MIC [5]: 64 µg/mL (≈ 62.6 µM)
- MIC [6]: > 128 µg/mL
- Interpretation ([7]; UTBLP + novobiocin): Synergy (FICI ≤ 0.5 is synergistic)
- Interpretation ([7]; UTBLP + rifampicin): Synergy (FICI ≤ 0.5 is synergistic)
- MICUTBLP ([7]; plate with novobiocin): > 128 µg/mL
- MICUTBLP ([7]; plate with rifampicin): > 128 µg/mL
- MICUTBLP [MICcombo] [7, 22]: 8 µg/mL
- MICUTBLP [MICcombo] [7, 23]: 16 µg/mL
- MICantibiotic [MICcombo] [7, 24]: 8 µg/mL
- MICantibiotic [MICcombo] [7, 25]: 2 µg/mL
- MIC [8]: > 128 µg/mL
- MIC [9]: > 128 µg/mL
- MIC [10]: 128 µg/mL (≈ 125 µM)
- Interpretation ([11]; UTBLP + novobiocin): Synergy (FICI ≤ 0.5 is synergistic)
- Interpretation ([11]; UTBLP + rifampicin): Synergy (FICI ≤ 0.5 is synergistic)
- MICUTBLP ([11]; plate with novobiocin): > 128 µg/mL
- MICUTBLP ([11]; plate with rifampicin): > 128 µg/mL
- MICUTBLP [MICcombo] [11, 22]: 16 µg/mL
- MICUTBLP [MICcombo] [11, 23]: 16 µg/mL
- MICantibiotic [MICcombo] [11, 24]: 4 µg/mL
- MICantibiotic [MICcombo] [11, 25]: 1 µg/mL
- MIC [12]: >128 µg/mL
- MIC [13]: >128 µg/mL
- Interpretation ([14]; UTBLP + chloramphenicol): Additive (0.5 < x ≤ 4 is additive)
- Interpretation ([14]; UTBLP + niclosamide): Additive (0.5 < x ≤ 4 is additive)
- Interpretation ([14]; UTBLP + novobiocin): Synergy (FICI ≤ 0.5 is synergistic)
- Interpretation ([14]; UTBLP + rifampicin): Additive (0.5 < x ≤ 4 is additive)
- MICUTBLP ([14]; plate with chloramphenicol): > 128 µg/mL
- MICUTBLP ([14]; plate with niclosamide): > 128 µg/mL
- MICUTBLP ([14]; plate with novobiocin): > 128 µg/mL
- MICUTBLP ([14]; plate with rifampicin): > 128 µg/mL
- MICUTBLP [MICcombo] [14, 20]: 8 µg/mL
- MICUTBLP [MICcombo] ([14]; UTBLP in combination with niclosamide): 0.25 µg/mL
- MICUTBLP [MICcombo] [14, 22]: 16 µg/mL
- MICUTBLP [MICcombo] [14, 23]: 16 µg/mL
- MICantibiotic [MICcombo] [14, 21]: 8 µg/mL
- MICantibiotic [MICcombo] ([14]; niclosamide in combination with the UTBLP): 1024 µg/mL
- MICantibiotic [MICcombo] [14, 24]: 128 µg/mL
- MICantibiotic [MICcombo] [14, 25]: 4 µg/mL
- Interpretation ([15]; UTBLP + novobiocin): Additive (0.5 < x ≤ 4 is additive)
- Interpretation ([15]; UTBLP + rifampicin): Additive (0.5 < x ≤ 4 is additive)
- MICUTBLP ([15]; plate with novobiocin): > 128 µg/mL
- MICUTBLP ([15]; plate with rifampicin): > 128 µg/mL
- MICUTBLP [MICcombo] [15, 22]: 16 µg/mL
- MICUTBLP [MICcombo] [15, 23]: 16 µg/mL
- MICantibiotic [MICcombo] [15, 24]: 512 µg/mL
- MICantibiotic [MICcombo] [15, 25]: 8 µg/mL
- Interpretation ([16]; UTBLP + novobiocin): Additive (0.5 < x ≤ 4 is additive)
- Interpretation ([16]; UTBLP + rifampicin): Additive (0.5 < x ≤ 4 is additive)
- MICUTBLP ([16]; plate with novobiocin): > 128 µg/mL
- MICUTBLP ([16]; plate with rifampicin): > 128 µg/mL
- MICUTBLP [MICcombo] [16, 22]: 16 µg/mL
- MICUTBLP [MICcombo] [16, 23]: 16 µg/mL
- MICantibiotic [MICcombo] [16, 24]: 512 µg/mL
- MICantibiotic [MICcombo] [16, 25]: 512 µg/mL
- Interpretation ([17]; UTBLP + novobiocin): Synergy (FICI ≤ 0.5 is synergistic)
- Interpretation ([17]; UTBLP + rifampicin): Synergy (FICI ≤ 0.5 is synergistic)
- MICUTBLP ([17]; plate with novobiocin): 64 µg/mL
- MICUTBLP ([17]; plate with rifampicin): 64 µg/mL
- MICUTBLP [MICcombo] [17, 22]: 4 µg/mL
- MICUTBLP [MICcombo] [17, 23]: 8 µg/mL
- MICantibiotic [MICcombo] [17, 24]: 2 µg/mL
- MICantibiotic [MICcombo] [17, 25]: 0.5 µg/mL
- Interpretation ([18]; UTBLP + novobiocin): Synergy (FICI ≤ 0.5 is synergistic)
- Interpretation ([18]; UTBLP + rifampicin): Synergy (FICI ≤ 0.5 is synergistic)
- MICUTBLP ([18]; plate with novobiocin): 128 µg/mL
- MICUTBLP ([18]; plate with rifampicin): 128 µg/mL
- MICUTBLP [MICcombo] [18, 22]: 8 µg/mL
- MICUTBLP [MICcombo] [18, 23]: 16 µg/mL
- MICantibiotic [MICcombo] [18, 24]: 16 µg/mL
- MICantibiotic [MICcombo] [18, 25]: 1 µg/mL
